Results reported in US20240150277A1, “Covalent PPARG inverse-agonists” (Bayer Aktiengesellschaft, priority 2022, published 2024).
Read-outs that look alike come from different tables or passages of the source.

Legend:
[1] = test system: UMUC9 cells; test: Proliferation UMUC9 H2B-GFP assay (Incucyte); type: cell-based; conditions: 7 days of treatment; for Emax: UM-UC-9, 168 h, % efficacy (span); for IC50: Day 1 subtracted, percentage of DMSO control
Method: Proliferation UMUC9 H2B-GFP assay
Instrument: Incucyte® (Sartorius).
Description: Incucyte® Proliferation Assay measures cell proliferation based on nuclei count using live-cell time-lapse imaging. […] Measurements were performed on the day of treatment (Day 1 reading) and after 7 days of treatment (Day 8 reading). Green fluorescence in cell nuclei is measured using the instrument (Image Channels: Phase, Green; Acquisition time: 300 ms; Magnification: 4×).
Analysis: Selected metrics for analysis: Phase Object Confluence (Percent), Nuclei Count (1/Well) and Total Nuclei Area (μm^2/Well). Day 1 measurements were subtracted from each Day 8 measurement and expressed as percentage of the vehicle (DMSO) control. Percentage proliferation values were then plotted against compound concentration using GraphPad PRISM software. The Sigmoidal 4PL X is log (concentration) model of […] was used. Relative IC50 values and % efficacy (span) is reported below.

[2] = target: T1, PPARG receptors (Homo sapiens, UniProt P37231); test: RT-112-FABP4-NLuc Reporter Gene Assay (inverse agonism); type: cell-based; conditions: incubated over night; for IC50 / PPARG_RT-112_FABP4_NLuc_inverse agonist Efficacy - [%]: bladder cancer cell line RT-112/84, NanoLuc in FABP4 3′ UTR; for IC50: 50 μM to 0.03 nM; for Emax: RT112/84, read-out: PPARG_RT-112_FABP4_NLuc_inverse agonist Efficacy - [%], bladder cancer cell line RT-112/84, NanoLuc in FABP4 3′ UTR
T1 construct: leading to PPARG dependent expression of the NanoLuc@ Luciferase; endogenous in cells
T1 sequence (P37231 1-505): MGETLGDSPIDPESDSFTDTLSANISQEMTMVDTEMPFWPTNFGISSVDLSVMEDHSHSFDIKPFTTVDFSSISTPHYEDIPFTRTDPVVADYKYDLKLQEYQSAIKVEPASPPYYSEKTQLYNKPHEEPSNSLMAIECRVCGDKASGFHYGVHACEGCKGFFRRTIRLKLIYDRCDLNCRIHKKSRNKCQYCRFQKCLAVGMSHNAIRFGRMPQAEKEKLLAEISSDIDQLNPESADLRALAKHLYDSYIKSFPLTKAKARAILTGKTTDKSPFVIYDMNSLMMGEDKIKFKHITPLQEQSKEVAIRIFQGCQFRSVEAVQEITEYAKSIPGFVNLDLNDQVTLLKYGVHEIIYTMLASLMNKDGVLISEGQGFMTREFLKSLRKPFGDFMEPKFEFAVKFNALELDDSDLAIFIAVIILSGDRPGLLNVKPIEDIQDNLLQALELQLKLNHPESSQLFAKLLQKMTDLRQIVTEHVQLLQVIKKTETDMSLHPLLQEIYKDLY
Method: Inverse agonists reduce the basal expression of the Luciferase resulting in a decrease of the Luciferase signal after addition of substrate and cell lysis. To exclude toxic effects of the compounds a parallel measurement of cell viability was performed based on the CellTiter Glo Assay (Promega).
On the next day 10 μl of test compounds dissolved in DMEM/F12 2% FBS and 0,01% BSA are placed in the wells of the microtiter plates. Final concentrations ranged from 50 μM to 0.03 nM. […] On the next day the NanoLuc Luciferase activity was measured by addition of 40 μl of NanoLuc substrate and lysis buffer (Promega, Madison, Wisconsin) diluted in 2 mM Ca-tyrode buffer (20 mM HEPES, 130 mM NaCl, 5 mM KCl, 5 mM NaHCO3, 2 mM MgCl2, pH 7,4). The resulting light signal was measured for 60 seconds in a luminometer. Every sample was tested in quadruples and mean values were used to calculate the IC50 values and efficacies of the compounds.

[3] = PPARG_RT-112_FABP4_NLuc_inverse agonist IC50 - [mol/l]
[4] = read-out: PPARG_RT-112_FABP4_NLuc_inverse agonist IC50 - [mol/l]

| SMILES | Emax [1] | IC50 ([1]; UM-UC-9, relative IC50) | IC50 [2, 3] | Emax [2] | PPARG_RT-112_FABP4_NLuc_inverse agonist Efficacy - [%] [2] | IC50 [2, 4] | IC50 ([1]; relative IC50, read-out: UM-UC-9 GFP proliferation IC50 -) |
| --- | --- | --- | --- | --- | --- | --- | --- |
| CC(C)(O)c1ccc(NC(=O)c2cc(C(=O)NCc3ccc(F)c(F)c3)c(F)cc2Cl)cc1 [Example 51, 4-chloro-N^1-[(3,4-difluorophenyl)methyl]-6-fluoro-N^3-[4-(2-hydroxypropan-2-yl)phenyl]benzene-1,3-dicarboxamide] | 69.2% | 38.5 nM |  |  |  |  |  |
| Cc1ccc(NC(=O)c2cc(C(=O)NCc3ccccc3)c(F)cc2Cl)cc1 [Example 24, N^1-benzyl-4-chloro-6-fluoro-N^3-(4-methylphenyl)benzene-1,3-dicarboxamide] | 24.4% | 25.1 nM | 7.65 nM | 92.5% |  |  |  |
| C#Cc1cc(F)c(C(=O)NCc2ccc(F)c(F)c2)cc1C(=O)Nc1ccccc1 [Example 40, N^1-(3,4-difluorobenzyl)-4-ethynyl-6-fluoro-N^3-phenylisophthalamide] | 72.1% | 391 nM | 1600 nM | 114% |  |  |  |
| Cc1ccccc1NC(=O)c1cc(C(=O)NCc2ccccc2)c(F)cc1Cl [Example 25, N1-benzyl-4-chloro-6-fluoro-N^3-(2-methylphenyl)benzene-1,3-dicarboxamide] |  | > 6000 nM | 40 nM | 99.3% |  |  |  |
| Cc1cc(C(F)(F)F)ccc1NC(=O)c1cc(C(=O)NC(CO)c2ccccc2)c(F)cc1Cl (single isomer, unassigned) [Example 29, 4-chloro-6-fluoro-N^1-[(1R*)-2-hydroxy-1-phenylethyl]-N^3-[2-methyl-4-(trifluoromethyl)phenyl]benzene-1,3-dicarboxamide] |  |  | 130 nM |  | 81.00% |  |  |
| O=C(NCc1ccc(F)c(F)c1)c1cc(Cl)c(Cl)c(C(=O)Nc2cnccn2)c1 [Example 42, 4,5-dichloro-N^1-(3,4-difluorobenzyl)-N^3-(pyrazin-2-yl)isophthalamide] | 68.6% | 1.94 nM | 4.7 nM | 102% |  |  |  |
| O=C(NCc1ccc(F)cc1)c1cc(C(=O)Nc2ccc3oc(-c4cccc(Cl)c4)nc3c2)c(Cl)cc1F [Example 22, 4-chloro-N^3-[2-(3-chlorophenyl)-1,3-benzoxazol-5-yl]-6-fluoro-N^1-[(4-fluorophenyl)methyl]benzene-1,3-dicarboxamide] | 86.6% | 21.6 nM | 1.3 nM | 106% |  |  |  |
| O=C(NCc1ccccc1)c1cc(C(=O)Nc2ccccc2)c(Cl)cc1F [Example 28, N^1-benzyl-4-chloro-6-fluoro-N^3-phenylbenzene-1,3-dicarboxamide] | 31.2% |  |  |  |  |  |  |
| Cc1cccc(-c2nc3cc(NC(=O)c4cc(C(=O)NCc5ccc(F)cc5)cc(Cl)c4Cl)ccc3o2)c1 [Example 9, 4,5-dichloro-N^1-[(4-fluorophenyl)methyl]-N^3-[2-(3-methylphenyl)-1,3-benzoxazol-5-yl]benzene-1,3-dicarboxamide] | 58.1% | 4.51 nM | 0.355 nM | 105% |  |  |  |
| O=C(NCc1ccc(F)c(F)c1)c1cc(Cl)c(Cl)c(C(=O)Nc2ccc(C3CC3)cn2)c1 [Example 14, 4,5-dichloro-N^3-(5-cyclopropylpyridin-2-yl)-N^1-[(3,4-difluorophenyl)methyl]benzene-1,3-dicarboxamide] | 85% | 1570 nM | 0.42 nM | 82.5% |  |  |  |
| CCCOCc1cc(F)ccc1CNC(=O)c1cc(C(=O)Nc2ccc(C(F)(F)F)cc2C)c(Cl)cc1F [Example 4, 4-chloro-6-fluoro-N^1-{[4-fluoro-2-(propoxymethyl)phenyl]methyl}-N^3-[2-methyl-4-(trifluoromethyl)phenyl]benzene-1,3-dicarboxamide] | 138% | 3.22 nM | 8.35 nM | 87% |  |  |  |
| Cc1cc(OC(F)F)ccc1NC(=O)c1cc(C(=O)NC(CO)c2ccc(F)cc2)c(F)cc1Cl (stereo not shown) [Example 2, 4-chloro-N^3-[4-(difluoromethoxy)-2-methylphenyl]-6-fluoro-N^1-[1-(4-fluorophenyl)-2-hydroxyethyl]benzene-1,3-dicarboxamide] | 72.7% | 204 nM | 33 nM | 110% |  |  |  |
| Cc1cc(N2CCOCC2)cnc1NC(=O)c1cc(C(=O)NCc2ccc(F)c(F)c2)c(F)cc1Cl [Example 41, 4-chloro-N^1-(3,4-difluorobenzyl)-6-fluoro-N^3-(3-methyl-5-morpholinopyridin-2-yl)isophthalamide] | 98.9% |  |  |  |  |  |  |
| O=C(NCc1ccc(F)c(F)c1)c1ccc(Cl)c(C(=O)Nc2ccccc2)c1 [Example 44, 4-chloro-N^1-[(3,4-difluorophenyl)methyl]-N^3-phenylbenzene-1,3-dicarboxamide] | 103% |  |  | 51.5% |  | 7400 nM |  |
| O=C(NCc1ccc(F)cc1)c1cc(C(=O)Nc2ccc(Oc3ccccc3)cn2)c(Cl)cc1F [Example 21, 4-chloro-6-fluoro-N^1-[(4-fluorophenyl)methyl]-N^3-(5-phenoxypyridin-2-yl)benzene-1,3-dicarboxamide] | 56.1% | 10.6 nM | 1.48 nM | 142% |  |  |  |
| Cc1cc(N2CCCC(O)C2)ccc1NC(=O)c1cc(C(=O)NCc2ccc(F)c(F)c2)c(F)cc1Cl (single isomer, unassigned) [Example 6, 4-chloro-N′-[(3,4-difluorophenyl)methyl]-6-fluoro-N^3-{4-[3-hydroxypiperidin-1-yl]-2-methylphenyl}benzene-1,3-dicarboxamide] | 79.5% |  | 4.1 nM |  | 134.50% |  | 21.7 nM |
| Cc1cc(-c2nnco2)ccc1NC(=O)c1cc(C(=O)NCc2ccc(F)c(F)c2)c(F)cc1Cl [Example 10, 4-chloro-N^1-[(3,4-difluorophenyl)methyl]-6-fluoro-N^3-[2-methyl-4-(1,3,4-oxadiazol-2-yl)phenyl]benzene-1,3-dicarboxamide] | 86.7% |  |  | 108% |  | 4.8 nM |  |
| O=C(NCc1ccccc1)c1cc(Cl)c(Cl)c(C(=O)Nc2ccc(Cl)cn2)c1F [Example 32, N^1-benzyl-4,5-dichloro-N^3-(5-chloropyridin-2-yl)-2-fluorobenzene-1,3-dicarboxamide] |  |  | 1.3 nM | 74% |  |  |  |
| O=C(NCc1ccccc1)c1cc(Cl)c(Cl)c(C(=O)Nc2ccccc2)c1 [Example 16, N1-benzyl-4,5-dichloro-N^3-phenylbenzene-1,3-dicarboxamide] | 24.8% | 24.7 nM |  |  |  |  |  |
| O=C(NCc1ccc(F)cc1)c1ccc(Cl)c(C(=O)Nc2ccccc2)c1 [Example 45, 4-chloro-N^1-[(4-fluorophenyl)methyl]-N^3-phenylbenzene-1,3-dicarboxamide] | 57.6% |  |  |  |  |  |  |
| COc1ccccc1CNC(=O)c1ccc(Cl)c(C(=O)Nc2ccccc2)c1 [Example 46, 4-chloro-N^1-[(2-methoxyphenyl)methyl]-N^3-phenylbenzene-1,3-dicarboxamide] | 70.6% | 2630 nM |  |  |  |  |  |
| O=C(NCc1ccccc1)c1ccc(Cl)c(C(=O)Nc2ccccc2)c1 [Example 43, N^1-benzyl-4-chloro-N^3-phenylbenzene-1,3-dicarboxamide] | 27.1% |  |  |  |  |  |  |
| O=C(NCc1ccccc1)c1ccc(Br)c(C(=O)Nc2ccccc2)c1 [Example 48, N^1-benzyl-4-bromo-N^3-phenylbenzene-1,3-dicarboxamide] | 43.1% |  |  |  |  |  |  |
